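1) Cells in 96-well plates. 2) Compound, 48 h, 5 concentrations. 3) Linear interpolation between surrounding doses. 4) Unreached endpoint = highest concentration. GI50 marks 50% less growth. TGI: total growth inhibition.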
What was measured:
Experiment in all cases: inhibition of tumour cell growth, NCI panel, 48 h
HCT-15 colon = tested on: HCT-15 colon
T-47D breast = tested on: T-47D breast
BT-549 breast = tested on: BT-549 breast
OVCAR-8 ovarian = tested on: OVCAR-8 ovarian
NCI/ADR-RES ovarian = tested on: NCI/ADR-RES ovarian
KM12 colon = tested on: KM12 colon
NCI-H226 lung = tested on: NCI-H226 lung
ACHN renal = tested on: ACHN renal
HCT-116 colon = tested on: HCT-116 colon
HCC-2998 colon = tested on: HCC-2998 colon

Structure (SMILES)	GI50 (HCT-15 colon)	TGI (HCT-15 colon)	GI50 (T-47D breast)	TGI (T-47D breast)	GI50 (BT-549 breast)	TGI (BT-549 breast)	GI50 (OVCAR-8 ovarian)	TGI (OVCAR-8 ovarian)	GI50 (NCI/ADR-RES ovarian)	TGI (NCI/ADR-RES ovarian)	GI50 (KM12 colon)	TGI (KM12 colon)	GI50 (NCI-H226 lung)	TGI (NCI-H226 lung)	GI50 (ACHN renal)	TGI (ACHN renal)	GI50 (HCT-116 colon)	TGI (HCT-116 colon)	TGI (HCC-2998 colon)
O=C1c2cc3c(cc2-c2c1c1ccc(F)cc1c(=O)n2C[C@H](O)[C@H](O)[C@H](O)CO)OCO3	0.199 µM	0.724 µM	0.0419 µM	0.391 µM	0.149 µM	1.05 µM	0.203 µM	0.66 µM	0.207 µM	2.14 µM									
CCN(CCO)CCCC(C)Nc1ccnc2cc(Cl)ccc12 (centres undefined)	> 100 µM	> 100 µM	> 100 µM	> 100 µM	> 100 µM	> 100 µM	> 100 µM	> 100 µM			> 100 µM	> 100 µM	> 100 µM	> 100 µM	> 100 µM	> 100 µM	> 100 µM	> 100 µM	
COc1ccc([Se][Se]c2ccc(OC)cc2OC)c(OC)c1		4.33 µM						> 100 µM				14.6 µM		7.71 µM		8.89 µM		10.5 µM	> 100 µM
Cc1[nH]c2ccccc2c1C1=NO/C(=N\O)C(c2c(C)[nH]c3ccccc23)C1 (centres undefined)		> 100 µM						> 100 µM				> 100 µM		> 100 µM		> 91.1 µM		> 78.5 µM	> 100 µM
N#CC1(N2CCCC2)CCC2(CC1)OCCO2		> 100 µM						> 100 µM				> 100 µM		> 100 µM		> 100 µM		> 100 µM	> 100 µM
COc1ccc(-c2cc(=O)c3cc(C)c(C)c(C(=O)O)c3o2)cc1		> 100 µM						> 100 µM				> 100 µM				94.4 µM		> 100 µM	> 100 µM
C[C@]12CCc3nonc3C1CC[C@@H]1C2CC[C@@]2(C)C1CC[C@@H]2O (some centres undefined)		> 100 µM						> 100 µM				> 100 µM		> 100 µM		> 100 µM			> 100 µM
CCOC(=O)CNC(=O)OCc1ccccc1		> 100 µM						> 100 µM				> 100 µM				> 100 µM		> 100 µM	> 100 µM
O=C1NC2(CCCC2)C2CCCCC12O (centres undefined)		> 100 µM						> 100 µM				> 100 µM				> 100 µM		> 100 µM	
Brc1ccc(C=NC23CC4CC(CC(C4)C2)C3)cc1		> 100 µM						> 100 µM				> 100 µM		> 100 µM		> 100 µM		> 100 µM	> 100 µM
CC(=O)NCc1c(C(N)=O)ncn1Cc1ccccc1		> 100 µM						> 100 µM								> 100 µM		> 100 µM	> 100 µM
[Co].[O-]c1cccnc1C=Nc1ccccc1.[OH3+]	50.4 µM	> 100 µM					> 100 µM	> 100 µM			> 100 µM	> 100 µM			79.9 µM	> 100 µM	> 100 µM	> 100 µM	
CC[C@H]1CCC/C=C/[C@@H]2C[C@H](O)C[C@H]2[C@H](O)/C=C/C(=O)O1	0.0446 µM		0.0636 µM	0.263 µM	0.0549 µM	> 100 µM	0.0432 µM	> 100 µM	0.0379 µM	> 45.3 µM	0.0227 µM	0.0523 µM	0.0197 µM	0.0424 µM	0.0443 µM	> 100 µM	0.0328 µM	0.119 µM	
